The results in this text go back to patent US7718768B2, “Biologically active peptide [sequence]” (CMS Peptides Patent Holding Company Limited, priority 2001, dated 2010).

Where “and” joins values, the source holds several entries; their conditions need not be identical. Equal entries are not always repeated. Marks after values point to notes of the source that are not given here. No end group written: not given here.

Experiment [1] concerns T lymphocyte. Description: T lymphocyte transformation test (ConA, MTT) on spleen cells of treated mice. It is filed as in vivo, BALB/c mice. Details: key: OD of assay wells divided by OD of control wells. The following applies: IFN-γ and IL-2 groups 3×10^5 IU/kg/day, X ± SD. Put shortly: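 Mice (10/group) were dosed i.p. in saline once daily for 15 days; spleen cells were harvested the next day. Cells at 1×10^6/ml were stimulated with ConA (100 μg/ml stock) or medium for 66 h at 37 °C, then given MTT for 4 h and read at OD570/630. Stimulation Index = mean ConA OD / mean control OD per mouse.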

Experiment [2] relates to T lymphocyte. Details: species or system BALB/c mice. To be noted: mouse, in vivo, ip.
The subject of another experiment is anti-SRBC antibody. Description: humoral immunity (SRBC hemolysis index) of mice bearing transplanted B16 melanoma. It is filed as in vivo, C57BL/6 mice. Details: key: index = (OD540 of test sample ÷ reference OD540) × 500. Here is the method:
Intraperitoneal injection, once per day. […] Treatment of all groups with testing substance lasted for 30 days or until the animal died unless otherwise specified.
Stock B16 mouse melanoma cells were incubated in DMEM/F12 medium supplemented with 10% fetal bovine serum, 37° C./5% CO2 for 72 hrs, then washed 3-4 times with Hank's solution. The cell concentration was adjusted to 1×10^5 per ml with Hank's solution and 0.1 ml of the cell suspension was injected via the tail vein into the testing mice to generate the B16 melanoma bearing animal model. Treatment with test substance started as described in section Method 1.
Sheep red blood cells (SRBC) were prepared by collecting blood from the cervical vein and put into a sterile flask with glass beads. The flask was shaken for 3 minutes and the blood then mixed with Alsever solution (glucose 2.05 g, NaCl 0.4 g, […] 0.8 g, adjust to 100 ml with distilled water) and stored at 4° C. Immediately before use, samples were centrifuged at 130 g, 5 minutes to collect the SRBC. The cells were washed two times by re-suspension and centrifugation in normal saline. Then the cell pellet was collected by centrifugation at 180 g for 10 minutes and re-suspended in saline to make the final working SRBC suspension, 2% (v/v).
Complement was prepared by adding 10 volumes of fresh Cavy serum into one volume centrifuge packed SRBC, and then gently shaken for 30 minutes at 4° C. The SRBC was removed by centrifugation at 200 g for 10 minutes. 10 volumes of normal saline were added to obtain the working complement solution.
On the testing animals, on the 27th date of test substance treatment, 0.2 ml of the working SRBC cell suspension was injected into each animal to raise antibody. On the day after the last test substance administration, blood was collected from the eye canthus and left at room temperature for one hour for serum exudation. After centrifugation at 200 g for 10 minutes, the collected serum was diluted by 500 times with normal saline.
To 1 ml diluted mouse serum of each mouse, 0.5 ml SRBC suspension was added. Ice cold. Then 1 ml working complement solution was added and incubated at 37° C. water bath for 10 minutes. Reactions were terminated by ice cold. Samples were then centrifuged at 200 g for 10 minutes to obtain the supernatant.
To 1 ml of this supernatant, 3 ml Drabkin solution was added and left at room temperature for 10 minutes. OD540nm was obtained.
Reference OD540nm was obtained by mixing 0.25 ml SRBC suspension with Drabkin solution to 4 ml and placed at room temperature for 10 minutes before OD540nm was taken. Hemolysis index=(OD540nm of test sample÷reference OD540 nm)×500 6.2 After the Humoral Immunity Study, the Mice were Killed by Cervical Vertebra Dislocation. Postmortum Examination of the Animals was Performed. The Pathological Changes were Recorded, and the Numbers of Melanoma Lung Metastasis Foci were Counted. Results 1. The Effect of Peptide on the Cellular Phagocytosis in BALB/c Mice with Transplanted S180 Sarcoma (Method 2.1)

The test system of another experiment is mononuclear phagocyte. The experiment can be described thus: carbon particle clearance test, phagocytotic activity of mononuclear phagocyte. Type of experiment: in vivo, BALB/c mice. Details: key: α = (cube root of K)×(body weight ÷ liver+spleen weight). The following applies: IFN-γ and IL-2 groups 3×10^5 IU/kg/day, X ± SD. Put shortly: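 Mice received India ink (0.1 ml/kg i.v., 5-fold diluted) on day 16, one day after last dosing; blood at 1 and 5 min was lysed in 0.1% Na2CO3 and read at OD680. Clearance index K from log OD decline; phagocytic index α = ∛K × body weight/(liver+spleen weight); thymus and spleen indices as % body weight.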

Where [3] appears, read: peptide 5 μg/kg/day i.p. 15 days.
[4] abbreviates: peptide 50 μg/kg/day i.p. 15 days.
The mark [5] stands for this setting: peptide 500 μg/kg/day i.p. 15 days.
The mark [6] stands for this setting: peptide 0.5 μg/kg/day i.p. 15 days.

Consider FNFVPP [CMS003], for which the results for the “stimulation index (T lymphocyte transformation)” value (from here on “stimulation index”) with T lymphocyte [1] (setting [3]) and with T lymphocyte [1] (setting [4]) were 1.6 ± 0.2 and 2.2 ± 0.5*^@^, respectively. Moreover, in the experiment with T lymphocyte [2], the “activity of T lymphocyte in secreting IFN” value (“activity of T lymphocyte” for short) is 106 ± 16 IU. Moreover, the Hemolysis index is given as 61.6 ± 26.9*^$ in the experiment on anti-SRBC antibody (0.5 μg/kg i.p. once per day), 37.2 ± 15.9*^$ in the experiment with anti-SRBC antibody (5 μg/kg i.p. once per day), 38.7 ± 13.5*^$ in the experiment on anti-SRBC antibody (50 μg/kg i.p. once per day) and 35.9 ± 13.0*^$ in the experiment on anti-SRBC antibody (500 μg/kg i.p. once per day). The phagocytotic index in the experiment on mononuclear phagocyte (setting [3]) was 6.9 ± 0.9*^; in the experiment on mononuclear phagocyte (setting [5]), 6.6 ± 0.7.

For IGMESAGIHETTY [CMS016], in the experiment with T lymphocyte [2], the “activity of T lymphocyte” value was 162 ± 19*^@^ IU. This molecule showed a Hemolysis index with anti-SRBC antibody (500 μg/kg i.p. once per day) of 43.3 ± 29.9. The phagocytotic index in the experiment on mononuclear phagocyte (setting [3]) is given as 6.9 ± 0.8*^.

As for KAVGHLDDLPGAL [CMS008], the “stimulation index” value in the experiment on T lymphocyte [1] (setting [6]) was determined as 1.7 ± 0.3. For the same molecule, the Hemolysis index with anti-SRBC antibody (0.5 μg/kg i.p. once per day) is listed as 42.7 ± 18.4*^$; in the experiment with anti-SRBC antibody (5 μg/kg i.p. once per day) it was 38.9 ± 12.0*^$; in the experiment with anti-SRBC antibody (50 μg/kg i.p. once per day) it was 37.1 ± 16.7*^$; in the experiment on anti-SRBC antibody (500 μg/kg i.p. once per day), 50.1 ± 17.8*^$. The phagocytotic index is listed as 6.4 ± 0.5 in the experiment with mononuclear phagocyte (setting [3]) and 6.5 ± 1.2 with mononuclear phagocyte (setting [5]).

Regarding LRVAPEEHPTL [CMS009], the “stimulation index” value with T lymphocyte [1] (setting [5]) is 1.7 ± 0.2. In addition, the “activity of T lymphocyte” value with T lymphocyte [2] is 121 ± 15*^ IU. Moreover, in the experiment with mononuclear phagocyte (setting [3]), the phagocytotic index is 6.9 ± 0.9*^.

PSIVGRPRHQGVM [CMS015]: the “stimulation index” value with T lymphocyte [1] (setting [5]) is given as 1.9 ± 0.3*^@^.

As to PTTKTYFPHF [CMS001], the “stimulation index” value is reported as 1.7 ± 0.2 in the experiment on T lymphocyte [1] (setting [3]) and 2.2 ± 0.5*^@^ in the experiment with T lymphocyte [1] (setting [4]). Moreover, the Hemolysis index in the experiment on anti-SRBC antibody (0.5 μg/kg i.p. once per day) is recorded as 51.0 ± 16.2*^$; in the experiment on anti-SRBC antibody (5 μg/kg i.p. once per day) it was 41.3 ± 17.7*^$; in the experiment on anti-SRBC antibody (50 μg/kg i.p. once per day), 45.0 ± 31.9*^$; in the experiment on anti-SRBC antibody (500 μg/kg i.p. once per day) it was 36.0 ± 10.2*^$.

“Phe Val Asn Asp (FVND; listed as Sus scrofa) [CMS035]”: the Hemolysis index in the experiment on anti-SRBC antibody (5 μg/kg i.p. once per day) was 38.9 ± 21.2*^$; in the experiment with anti-SRBC antibody (50 μg/kg i.p. once per day), 44.7 ± 22.7*^$; in the experiment on anti-SRBC antibody (500 μg/kg i.p. once per day) it was 40.5 ± 25.8. For the same molecule, the phagocytotic index in the experiment with mononuclear phagocyte (setting [3]) is listed as 6.9 ± 0.9*^.

Take “Pro Glu Asn Phe (PENF; listed as Sus scrofa) [CMS034]”: the “stimulation index” value in the experiment with T lymphocyte [1] (setting [3]) is reported as 1.5 ± 0.2. Moreover, the values for the Hemolysis index in the experiment with anti-SRBC antibody (0.5 μg/kg i.p. once per day), with anti-SRBC antibody (5 μg/kg i.p. once per day) and in the experiment on anti-SRBC antibody (50 μg/kg i.p. once per day) were 50.8 ± 18.4*^$, 43.0 ± 11.7*^$ and 30.2 ± 10.9, respectively.

In the case of RVAPEEHPTL [CMS011], the “stimulation index” value in the experiment with T lymphocyte [1] (setting [6]) was 1.6 ± 0.4. Moreover, the “activity of T lymphocyte” value in the experiment with T lymphocyte [2] is 89 ± 18 IU. Further, the Hemolysis index is on record as 32.0 ± 14.7 in the experiment with anti-SRBC antibody (0.5 μg/kg i.p. once per day) and 34.4 ± 19.4 in the experiment on anti-SRBC antibody (500 μg/kg i.p. once per day). Also, the phagocytotic index with mononuclear phagocyte (setting [3]) was 6.4 ± 1.1.

On to “Tyr Ser Leu (YSL; listed as Sus scrofa) [CMS024]”, for which the Hemolysis index in the experiment with anti-SRBC antibody (0.5 μg/kg i.p. once per day) is 43.0 ± 10.7*^$; in the experiment with anti-SRBC antibody (5 μg/kg i.p. once per day), 42.2 ± 11.8*^$; with anti-SRBC antibody (50 μg/kg i.p. once per day), 27.8 ± 9.1; with anti-SRBC antibody (500 μg/kg i.p. once per day), 30.1 ± 10.0. Besides, the phagocytotic index in the experiment on mononuclear phagocyte (setting [6]) is 6.7 ± 0.5*^; in the experiment on mononuclear phagocyte (setting [4]), 6.6 ± 0.7; in the experiment on mononuclear phagocyte (setting [5]), 6.4 ± 1.0.

Consider VAPEEHPTLLTEAPLNPK [CMS010], for which the “stimulation index” value is on record as 1.7 ± 0.3 in the experiment on T lymphocyte [1] (setting [6]) and 2.0 ± 0.3*^@^ in the experiment with T lymphocyte [1] (setting [5]). Further, the “activity of T lymphocyte” value in the experiment with T lymphocyte [2] is 167 ± 13*^@^ IU and 142 ± 18*^@^ IU. Further, the Hemolysis index in the experiment with anti-SRBC antibody (0.5 μg/kg i.p. once per day) was 34.9 ± 10.5*^$; with anti-SRBC antibody (5 μg/kg i.p. once per day), 51.0 ± 14.6*^$; with anti-SRBC antibody (50 μg/kg i.p. once per day), 39.6 ± 7.7*^$; with anti-SRBC antibody (500 μg/kg i.p. once per day), 50.1 ± 16.7*^$. In addition, in the experiment with mononuclear phagocyte (setting [3]), the phagocytotic index is given as 7.1 ± 0.7*^.

Turning to VGMGQKDSY [CMS019], in the experiment with T lymphocyte [1] (setting [5]), the “stimulation index” value is 1.8 ± 0.3. Besides, the Hemolysis index in the experiment on anti-SRBC antibody (0.5 μg/kg i.p. once per day) is 42.0 ± 12.0*^$; in the experiment on anti-SRBC antibody (5 μg/kg i.p. once per day), 35.4 ± 15.1*^$; in the experiment on anti-SRBC antibody (50 μg/kg i.p. once per day), 28.3 ± 7.6. Moreover, the phagocytotic index is given as 6.8 ± 0.6*^ with mononuclear phagocyte (setting [3]) and 6.7 ± 0.9*^ in the experiment on mononuclear phagocyte (setting [4]).

B1: IFN-γ: recombinant mouse interferon-γ, Beijing Biotech Inc.; positive control immunostimulant (protein, UniProt P01580 23-155, looked up)
Interferon gamma: HGTVIESLESLNNYFNSSGIDVEEKSLFLDIWRNWQKDGDMKILQSQIISFYLRLFEVLKDNQAISNNISVIESHLITTFFSNSKAKKDAFMSIAKFEVNNPQVQRQAFNELIRVVHQLLPESSLRKRKRSRC
For the molecule B1, the “stimulation index” value is on record as 1.6 ± 0.2 in the experiment on T lymphocyte [1] (setting [6]), 1.6 ± 0.2 with T lymphocyte [1] (setting [3]), 1.7 ± 0.2 in the experiment on T lymphocyte [1] (setting [4]) and 1.6 ± 0.2 in the experiment with T lymphocyte [1] (setting [5]). Further, in the experiment on T lymphocyte [2], the “activity of T lymphocyte” value is 139 ± 16 IU and 125 ± 18 IU and 124 ± 16 IU. In the experiment on anti-SRBC antibody (3 × 10^5 IU/kg i.p. once per day), the Hemolysis index came to 60.5 ± 17.4. The phagocytotic index with mononuclear phagocyte (setting [6]), in the experiment with mononuclear phagocyte (setting [3]), with mononuclear phagocyte (setting [4]) and with mononuclear phagocyte (setting [5]) was 6.4 ± 0.9 throughout.
